Laboratory results as given in ChEMBL document CHEMBL1201862, “PubChem BioAssay data set” (2004).
Several values for one entry are separate records, joined by “and”; a condition that tells them apart may be missing. Equal entries are not always repeated.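 Values below derive from 48-hour exposures of cells grown in 96-well plates, with endpoints linearly interpolated between the two concentrations bracketing the appropriate inhibition level. GI50 marks 50% less growth.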 Activity calls are given as the source filed them. No stated cut-off is given here; in the data, active = GI50 up to about 1.1 µM and inactive = higher.

Experiments:
Assay in all cases: DTP human tumour cell line panel, 48 h
SF-295 = test system: SF-295
NCI-H522 = test system: NCI-H522
MOLT-4 = test system: MOLT-4
IGROV-1 = test system: IGROV-1
SK-MEL-5 = test system: SK-MEL-5
LOX IMVI = test system: LOX IMVI
SN12C = test system: SN12C
K562 = test system: K562
HCT-116 = test system: HCT-116
CCRF-CEM = test system: CCRF-CEM
Hs-578T = test system: Hs-578T
HL-60 = test system: HL-60
NCI-H460 = test system: NCI-H460
KM12 = test system: KM12
MDA-MB-435 = test system: MDA-MB-435
OVCAR-8 = test system: OVCAR-8
RXF 393 = test system: RXF 393
786-0 = test system: 786-0
SNB-75 = test system: SNB-75
SF-268 = test system: SF-268
SW-620 = test system: SW-620
HT-29 = test system: HT-29
MDA-N = test system: MDA-N
RPMI-8226 = test system: RPMI-8226
BT-549 = test system: BT-549
NCI-H226 = test system: NCI-H226
SK-OV-3 = test system: SK-OV-3
A549 = test system: A549
SNB-19 = test system: SNB-19
SK-MEL-28 = test system: SK-MEL-28
HCT-15 = test system: HCT-15
T47D = test system: T47D
MCF7 = test system: MCF7
ACHN = test system: ACHN
UACC-257 = test system: UACC-257
OVCAR-5 = test system: OVCAR-5
NCI-H23 = test system: NCI-H23
UACC-62 = test system: UACC-62
U-251 = test system: U-251
MDA-MB-231 = test system: MDA-MB-231
EKVX = test system: EKVX
OVCAR-3 = test system: OVCAR-3
A498 = test system: A498
NCI/ADR-RES = test system: NCI/ADR-RES
HOP-92 = test system: HOP-92
SK-MEL-2 = test system: SK-MEL-2
OVCAR-4 = test system: OVCAR-4
PC-3 = test system: PC-3
SF-539 = test system: SF-539
SR = test system: SR
HOP-62 = test system: HOP-62
DU-145 = test system: DU-145
CAKI-1 = test system: CAKI-1
HCC 2998 = test system: HCC 2998
Malme-3M = test system: Malme-3M
COLO 205 = test system: COLO 205
TK-10 = test system: TK-10
M14 = test system: M14
UO-31 = test system: UO-31

Which GI50 (SF-295) does the source give for `CC(=O)OCC1OC(OC(C)(C)CC/C=C(\C)[C@@H]2C/C=C(\C)CC/C=C(\C)CC2)C(O)C(O)C1OC(C)=O` (stereo partly drawn) here?
The GI50 was 22.9 µM (inactive) and 42.3 µM (inactive).

What about the GI50 (NCI-H522) of the same compound?
Its GI50 is 18.9 µM (inactive) and 11.3 µM (inactive).

What about the GI50 (MOLT-4) of the same compound?
The GI50 was 17 µM (inactive) and > 10 µM (inactive).

And the GI50 (IGROV-1)?
Its GI50 is 17.5 µM (inactive) and 21.6 µM (inactive).

What about the GI50 (SK-MEL-5) of the same compound?
Its GI50 is 17.5 µM (inactive) and 30.1 µM (inactive).

And the GI50 (LOX IMVI)?
The GI50 was 18.5 µM (inactive) and 21.3 µM (inactive).

And the GI50 (SN12C)?
The GI50 was 32 µM (inactive) and 20 µM (inactive).

What about the GI50 (K562) of the same compound?
Its GI50 is 28.7 µM (inactive) and 22.4 µM (inactive).

And the GI50 (HCT-116)?
Its GI50 is 25 µM (inactive) and 22.9 µM (inactive).

What about the GI50 (CCRF-CEM) of the same compound?
Its GI50 is 22.5 µM (inactive) and 14 µM (inactive).

What about the GI50 (Hs-578T) of the same compound?
The GI50 was 300 nM (active).

What about the GI50 (HL-60) of the same compound?
The GI50 was 28500 nM (inactive).

And the GI50 (NCI-H460)?
The GI50 was 17.9 µM (inactive) and 23.2 µM (inactive).

What about the GI50 (KM12) of the same compound?
The GI50 was 26.7 µM (inactive) and 19 µM (inactive).

And the GI50 (MDA-MB-435)?
The GI50 was 32.8 µM (inactive) and 20.2 µM (inactive).

What about the GI50 (OVCAR-8) of the same compound?
The GI50 was 20.6 µM (inactive) and 28.6 µM (inactive).

What about the GI50 (RXF 393) of the same compound?
The GI50 was > 100000 nM (inactive).

And the GI50 (786-0)?
Its GI50 is 39.4 µM (inactive) and 23.6 µM (inactive).

And the GI50 (SNB-75)?
The GI50 was 17.4 µM (inactive) and 17.1 µM (inactive).

What about the GI50 (SF-268) of the same compound?
Its GI50 is 27 µM (inactive) and 19.8 µM (inactive).

What about the GI50 (SW-620) of the same compound?
The GI50 was 26.1 µM (inactive) and 24.2 µM (inactive).

And the GI50 (HT-29)?
The GI50 was 24.5 µM (inactive) and 14.9 µM (inactive).

And the GI50 (MDA-N)?
Its GI50 is 24.7 µM (inactive) and 19.7 µM (inactive).

What about the GI50 (RPMI-8226) of the same compound?
Its GI50 is 25.5 µM (inactive) and 19.7 µM (inactive).

And the GI50 (BT-549)?
The GI50 was 33.9 µM (inactive) and 19.7 µM (inactive).

With `COC(=O)c1c[nH]c2c1-c1cc(C(=O)OCc3ccccc3)n(S(=O)(=O)c3ccc(C)cc3)c1C(=O)C2=O` as the compound, how does the GI50 (NCI-H226) read?
Its GI50 is 729 nM (active).

What about the GI50 (SF-295) of the same compound?
Its GI50 is 170 nM (active).

And the GI50 (SK-OV-3)?
Its GI50 is 1240 nM (inactive).

And the GI50 (NCI-H522)?
Its GI50 is 207 nM (active).

And the GI50 (A549)?
Its GI50 is 716 nM (active).

What about the GI50 (MOLT-4) of the same compound?
Its GI50 is 356 nM (active).

And the GI50 (IGROV-1)?
The GI50 was 372 nM (active).

And the GI50 (SNB-19)?
Its GI50 is 193 nM (active).

And the GI50 (SK-MEL-5)?
The GI50 was 132 nM (active).

And the GI50 (LOX IMVI)?
The GI50 was 139 nM (active).

And the GI50 (SN12C)?
Its GI50 is 165 nM (active).

And the GI50 (K562)?
Its GI50 is 4.99 µM (inactive).

What about the GI50 (HCT-116) of the same compound?
The GI50 was 228 nM (active).

And the GI50 (SK-MEL-28)?
The GI50 was 120 nM (active).

And the GI50 (HCT-15)?
The GI50 was 194 nM.

And the GI50 (CCRF-CEM)?
The GI50 was 346 nM (active).

And the GI50 (T47D)?
The GI50 was 871 nM (active).

What about the GI50 (Hs-578T) of the same compound?
Its GI50 is 578 nM (active).

And the GI50 (MCF7)?
Its GI50 is 184 nM (active).

And the GI50 (HL-60)?
The GI50 was 144 nM (active).

What about the GI50 (ACHN) of the same compound?
Its GI50 is 280 nM (active).

And the GI50 (NCI-H460)?
The GI50 was 1.24 µM (inactive).

And the GI50 (UACC-257)?
Its GI50 is 156 nM (active).

What about the GI50 (OVCAR-5) of the same compound?
The GI50 was 1560 nM (inactive).

And the GI50 (KM12)?
Its GI50 is 250 nM (active).

What about the GI50 (NCI-H23) of the same compound?
Its GI50 is 149 nM (active).

What about the GI50 (UACC-62) of the same compound?
The GI50 was 188 nM (active).

What about the GI50 (MDA-MB-435) of the same compound?
Its GI50 is 31.8 nM (active).

And the GI50 (U-251)?
The GI50 was 317 nM (active).

And the GI50 (MDA-MB-231)?
The GI50 was 48.1 nM (active).

What about the GI50 (EKVX) of the same compound?
The GI50 was 173 nM (active).

What about the GI50 (OVCAR-3) of the same compound?
Its GI50 is 31.6 nM (active).

What about the GI50 (A498) of the same compound?
The GI50 was 1850 nM (inactive).

What about the GI50 (NCI/ADR-RES) of the same compound?
The GI50 was 450 nM (active).

And the GI50 (HOP-92)?
The GI50 was 270 nM (active).

What about the GI50 (SK-MEL-2) of the same compound?
The GI50 was 195 nM (active).

What about the GI50 (OVCAR-4) of the same compound?
Its GI50 is 299 nM (active).

What about the GI50 (OVCAR-8) of the same compound?
Its GI50 is 237 nM (active).

And the GI50 (RXF 393)?
The GI50 was 214 nM (active).

What about the GI50 (PC-3) of the same compound?
The GI50 was 283 nM (active).

And the GI50 (SF-539)?
The GI50 was 197 nM (active).

What about the GI50 (786-0) of the same compound?
Its GI50 is 220 nM (active).

And the GI50 (SR)?
The GI50 was 262 nM (active).

And the GI50 (SNB-75)?
Its GI50 is 189 nM (active).

And the GI50 (HOP-62)?
Its GI50 is 376 nM (active).

What about the GI50 (DU-145) of the same compound?
The GI50 was 154 nM (active).

And the GI50 (SF-268)?
Its GI50 is 234 nM (active).

What about the GI50 (SW-620) of the same compound?
The GI50 was 214 nM (active).

What about the GI50 (CAKI-1) of the same compound?
The GI50 was 1310 nM (inactive).

And the GI50 (HT-29)?
The GI50 was 473 nM (active).

What about the GI50 (HCC 2998) of the same compound?
Its GI50 is 578 nM (active).

And the GI50 (Malme-3M)?
Its GI50 is 103 nM (active).

And the GI50 (RPMI-8226)?
The GI50 was 362 nM (active).

What about the GI50 (COLO 205) of the same compound?
The GI50 was 805 nM (active).

What about the GI50 (TK-10) of the same compound?
The GI50 was 2000 nM (inactive).

And the GI50 (BT-549)?
Its GI50 is 190 nM (active).

What about the GI50 (M14) of the same compound?
The GI50 was 155 nM (active).

What about the GI50 (UO-31) of the same compound?
The GI50 was 327 nM (active).
